This experiment in a line: Evaluation of sensitivity (colour development with glucose, GDH-FAD, m-PMS, nickel; gradient versus WST-4). As to the method:
Separately, 100 μL of RO water was added to 7 mg of a glucose dehydrogenase that uses flavin adenine dinucleotide (FAD) as a coenzyme (GDH-FAD) (manufactured by TOYOBO CO., LTD., product No.: GLD-351), the enzyme was dissolved, and thus a GDH solution was produced. Furthermore, 200 μL of RO water was added to 3.5 mg of 1-methoxy-5-methylphenazium methyl sulfate (m-PMS) (manufactured by DOJINDO LABORATORIES), and the compound was dissolved therein. Thus, an s-PMS solution was produced. 1 mL of RO water was added to 129 mg of nickel chloride to dissolve the salt, and thus a nickel solution was produced.
40 μL of the reaction solution was added to 10 μL each of an aqueous glucose solution at a concentration of 125 mg/dL, an aqueous glucose solution at a concentration of 250 mg/dL, and an aqueous glucose solution at a concentration of 1,000 mg/dL, and the mixtures were allowed to develop color. The spectra were measured with a spectrophotometer (measurement cell length: 50 μm) (n=1). […] Thus, the gradient (gradientsample) was determined.
40 μL of the control reaction solution was added to 10 μL each of an aqueous glucose solution at a concentration of 125 mg/dL, an aqueous glucose solution at a concentration of 250 mg/dL, and an aqueous glucose solution at a concentration of 1,000 mg/dL, and the mixtures were allowed to develop color. The spectra were measured with a spectrophotometer (measurement cell length: 50 μm) (n=1). For each of the spectra, the absorbance at 650 nm, which is the measurement wavelength (λmax) of WST-4, was measured, and the glucose concentration in the colored solution and the absorbance were plotted on the horizontal axis and the vertical axis, respectively. Thus, the gradient (gradientWST-4) was determined.
FIG. 2 is a graph showing the relationship between the glucose concentration and the absorbance of produced formazan in relation to the tetrazolium compound 1 and WST-4. […] Meanwhile, the gradient serves as an index for the color development intensity of each compound. Therefore, when the value obtained by dividing the gradientsample by the gradientWST-4 (gradientsample/gradientWST-4) is greater than one-fold, it is implied that the intensity of color development on the longer wavelength side is higher compared to WST-4, which is a well-known indicator reagent.

Each structure is given as a SMILES string.

As to `COc1ccc2nc(-n3nc(-c4ccc(S(=O)(=O)O)cc4S(=O)(=O)[O-])n[n+]3-c3ccc(OC)c(S(=O)(=O)O)c3)sc2c1` [Example 1], the “ratio gradientsample/gradientWST-4” value (FIG. 2) is recorded as “about 2.4”. For the setting “FIG. 2, compound 1 at its λmax with nickel, WST-4 at 650 nm without nickel”, the “gradient (absorbance versus glucose concentration)” value is 0.0063. Also, the “Sensitivity, comparison with Comparative Example 5 (rating)” value (gradientsample/gradientWST-4, absorbance at λmax versus glucose concentration, cell length 50 μm) is “⊙ (gradientsample/gradientWST-4) was 2 or greater)”.

Source of the values: US11739083B2, “Disposable sensor chip with reagent including 2-substituted benzothiazolyl-3-substituted phenyl-5-substituted sulfonated phenyl-2H-tetrazolium salt” (TERUMO KABUSHIKI KAISHA, priority 2016, dated 2023).
